One series concerns HeLa. In words: Cytotoxicity against human HeLa cells after 72 hrs by MTT assay. The class given is functional, cell-based.
A further series relates to HCT-116. In words: Cytotoxicity against human HCT116 cells after 72 hrs by MTT assay. In kind it is functional, cell-based. To be noted: HCT-116, 72 h. (In general: Formazan colour is commonly taken as a measure of viable cells.)
The next series concerns HepG2. Briefly: Cytotoxicity against human HepG2 cells after 72 hrs by MTT assay. In kind it is functional, cell-based. The conditions noted are these: HepG2, 72 h.
A further series relates to A549. In words: Cytotoxicity against human A549 cells after 72 hrs by MTT assay. In kind it is functional, cell-based. The conditions noted are these: A549, 72 h.
Series [1] can be described thus: Cytotoxicity against mouse 3T3L1 cells assessed as viability at 100 ug/mL after 72 hrs by MTT assay. The class given is cell-based. To be noted: 3T3-L1 cells, read-out: Activity.

Among the data in ChEMBL document CHEMBL1955736, “The anomeric mixture of some O-galactolipid derivatives is more toxic against cancer cells than either anomer alone” (Bioorg Med Chem Lett, 2012) are IC50 and viability values, retold here.

Where only a bound is given, the exact number is not on record here.

On to `CCCCCCCCCCCCCCCCO[C@@H]1O[C@H](CO)[C@H](O)[C@H](O)[C@H]1O`, for which the IC50 in the series on HeLa was > 240 µM; in the series with HCT-116, > 240 µM; with HepG2, > 240 µM; with A549, 151 µM.
As for `CCCCCCCCCCO[C@H]1O[C@H](CO)[C@H](O)[C@H](O)[C@H]1O`, the IC50 in the series on HeLa is > 240 µM; with HCT-116 it was > 240 µM; in the series with HepG2, > 240 µM; in the series on A549, 144 µM.
As to `CCCCCCCCCCCO[C@H]1O[C@H](CO)[C@H](O)[C@H](O)[C@H]1O`, the concentration for half-maximal inhibition (IC50) is 196 µM with HeLa, 152 µM in the series with HCT-116, 151 µM with HepG2 and 102 µM with A549.
For `CCCCCCCCCCCCO[C@H]1O[C@H](CO)[C@H](O)[C@H](O)[C@H]1O` the same measures were 146 µM, 88.8 µM, 138 µM and 56.7 µM.
On the same counts, the results for `CCCCCCCCCCCCCO[C@H]1O[C@H](CO)[C@H](O)[C@H](O)[C@H]1O` are 73.3 µM, 75.1 µM, 89.9 µM and 51.8 µM.
On the same counts, the results for `CCCCCCCCCCCCCCO[C@H]1O[C@H](CO)[C@H](O)[C@H](O)[C@H]1O` are 67 µM, 72.8 µM, 68.1 µM and 49.6 µM.
For the molecule `CCCCCCCCCCCCCCCO[C@H]1O[C@H](CO)[C@H](O)[C@H](O)[C@H]1O`, the IC50 is 61.3 µM in the series with HeLa, 52.5 µM in the series with HCT-116, > 240 µM with HepG2 and 46.8 µM in the series on A549.
For `CCCCCCCCCCCCCCCCO[C@H]1O[C@H](CO)[C@H](O)[C@H](O)[C@H]1O` the same measures were 54.6 µM, 42.7 µM, > 240 µM and 38.5 µM.
With `CCCCCCCCCCO[C@@H]1O[C@H](CO)[C@H](O)[C@H](O)[C@H]1O`, the 50% inhibitory concentration (IC50) with HeLa is > 240 µM; in the series on HCT-116, > 240 µM; in the series with HepG2, > 240 µM; in the series on A549 it was 157 µM.
Regarding `CCCCCCCCCCCO[C@@H]1O[C@H](CO)[C@H](O)[C@H](O)[C@H]1O`, the IC50 with HeLa is 202 µM; with HCT-116 it was 155 µM; with HepG2 it was 200 µM; in the series on A549, 118 µM.
For `CCCCCCCCCCCCO[C@@H]1O[C@H](CO)[C@H](O)[C@H](O)[C@H]1O` the same measures were 151 µM, 97.8 µM, 162 µM and 77.2 µM.
For the molecule `CCCCCCCCCCCCCO[C@@H]1O[C@H](CO)[C@H](O)[C@H](O)[C@H]1O`, the IC50 in the series on HeLa came out at 148 µM; in the series with HCT-116, 85.3 µM; in the series with HepG2, 142 µM; in the series on A549, 62 µM.
For the molecule `CCCCCCCCCCOC1O[C@H](CO)[C@H](O)[C@H](O)[C@H]1O` (mixture of isomers), the IC50 in the series on HeLa came to 180 µM; in the series with HCT-116, 140 µM; in the series with HepG2, 192 µM; in the series with A549, 107 µM.
For the molecule `CCCCCCCCCCCOC1O[C@H](CO)[C@H](O)[C@H](O)[C@H]1O` (mixture of isomers), the half-maximal inhibitory concentration (IC50) in the series on HeLa was 60.5 µM; in the series on HCT-116 it was 50.9 µM; in the series with HepG2, 68.2 µM; in the series on A549, 45.6 µM.
For `CCCCCCCCCCCCOC1O[C@H](CO)[C@H](O)[C@H](O)[C@H]1O` (mixture of isomers) the same measures were 58.6 µM, 47.7 µM, 63.4 µM and 40.8 µM.
For `CCCCCCCCCCCCCOC1O[C@H](CO)[C@H](O)[C@H](O)[C@H]1O` (mixture of isomers) the same measures were 57.1 µM, 38.7 µM, 54.3 µM and 39.3 µM.
With `CCCCCCCCCCCCCCCCOC1O[C@H](CO)[C@H](O)[C@H](O)[C@H]1O` (mixture of isomers), the concentration for half-maximal inhibition (IC50) in the series on HeLa was 45 µM; in the series on HCT-116, 32.2 µM; with HepG2, > 240 µM; with A549, 25.3 µM. Besides, the viability at 72 h, 100 ug/mL in series [1] was 94.3%.

Usually IC50 stands for the point on the concentration scale where inhibition reaches its midpoint.
